Measured values as given in patent publication US12115141B2, “Diagnosis of diabetes by detecting aggregated amylin in erythrocytes” (University of Kentucky Research Foundation, priority 2018, dated 2024).
Read-outs that look alike come from different tables or passages of the source. Where no end group is shown, it is not given here.

Experiments:
AKO mice = conditions: cited from earlier work; for amylin deposits in the myocardium: i.v. q.d., 7 days
HIP rats = conditions: cited from earlier work
WT rat RBCs = test: RBC shape by flow cytometry after incubation with human amylin; format: cell-based
Method: In all rat groups (±high-fat diet), the RBC shape distributions are analyzed by FACScan flow cytometry (Becton Dickinson LSRII) as a function of characteristic RBC amylin levels, as in FIG. 4D. The Pearson coefficient of dissymmetry (PCD) shown in FIG. 4D reflects the sphericity of RBCs (PCD=0 indicates RBC spherical shape).
In some embodiments, RBCs (1×10^7 cells) were aliquoted to assay tubes, washed twice with 2 mL incubation buffer (0.5% BSA in PBS), and resuspended in 100 μL incubation buffer. RBCs were incubated with an anti-amylin antibody (1:200, T-4157, Bachem-Peninsula Laboratories, CA) for 1 hour on ice, washed twice with PBS by centrifugation at 1000×g for 1 minute and then incubated with goat anti-rabbit Alexa Fluor® 488 (A11029, Invitrogen, MA) for 30 min on ice. RBCs were then washed twice before re-suspension in 200 μl PBS, and analyzed by flow cytometer (Becton Dickinson LSRII) within 90 min. To assess the cell shape, RBCs were first gated on a forward scatter (FSC)/side scatter (SSC) plot. The R1 events arevisualized using a FSC-A/FSC-H dot plot. For detecting amylin deposited on RBCs, the cells were first gated on a forward scatter (FSC)/side scatter (SSC) plot. RBCs were further gated to determine the amylin signal (Alexa 488), using negative control (no antibody) and positive control to set the upper and lower boundaries.

diabetic UCD rats = test: Intravenous aggregated human amylin in diabetic UCD rats; format: in vivo, rat
Method: To examine further a possible ‘amylin stress” on oxygen-sensing pathways, aggregated human amylin (hA) (0.08 μg/g body weight) was intravenously administered to diabetic UCD rats, daily, for one week. […] This acute “amylin stress” provoked an increase in plasma EPO level (FIG. 23E; the “after hA inj” rat group) and no difference in renal HIF-2α and HIF-1α levels in whole kidney tissue homogenate (FIG. 23F).

[1] = tested on: RBCs / cultured vascular endothelial cells; test: RBC adhesion assay on cultured vascular endothelial cells; format: cell-based, rat
Method: RBCs collected from each HIP rat group (normal, pre-diabetes, diabetes, ±high-fat diet) are infused into AKO rats (300 μL RBCs, daily, 7 days, q.d., via the tail vein). Because diabetes develops later (by 6 mo) in female vs. male HIP rats, AKO rats are matched for age and sex to HIP rats providing the RBCs for infusion. At the end of infusion period, rats are sacrificed, perfused with saline through a catheter implanted into the right external jugular vein to wash out the blood from blood vessels, followed by heart collection and paraffin embedding. Confocal microscopy is used to identify the attachment of amylin-loaded RBCs to vascular endothelium (as in FIG. 5A). Before analysis, heart sections are incubated with 1% Sudan black to block autofluorescence. Control sections with either omitted primary or secondary antibodies are used to establish specific staining. […] Adherence is calculated as percentage of optical density of adhered Hb (as in FIG. 5C).
In some embodiments, adult rat microvascular endothelial cells (RA-6024, Cell Biologics, IL) were cultured on 96-wells cell culture plate coated with cell attachment factor solution (123-100, Sigma, MO). […] The amount of hemoglobin in each well was measured from the optical density (OD) as described above. Adherence was calculated as the percentage of OD of adhered hemoglobin/(OD of total hemoglobin×dilution factor).

cardiac myocytes = test: Amylin incorporation in cardiac myocytes ex vivo (FIG. 15B); format: cell-based
Method: Cardiac myocytes were isolated from rats in all rat groups. Isolated myocytes are used for testing myocyte accumulation of amylin (by ELISA and Western blot, as shown before^8,10), sarcolemmal structural integrity (dye leakage assay, electron microscopy, LC-MS/MS and fluorescent markers) and myocyte Ca^2+ cycling (see below). Each experiment is performed on hearts/myocytes from a number of rats/group. Calculation of the minimum sample size with a two-tail t-test considering α=0.05 and 1−β=0.8; performed with GPower 3.1.9.2.

amylin = molecular target: T1, amylin (Homo sapiens, UniProt P10997); test: Amylin aggregation with 14,15-EET (FIG. 15A); format: biochemical
T1 construct: is a 37-amino acid peptide synthesized and co-secreted with insulin
T1 sequence (P10997 34-70 limits assumed): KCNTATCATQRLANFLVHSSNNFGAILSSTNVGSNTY

[2] = kidney tissue homogenates, FIG. 23G

rodent amylin: non-amyloidogenic (i.e., monomeric) rodent amylin (KCNTATCATQRLANFLVRSSNNLGPVLPPTNVGSNTY; ends and bridges not checked; cysteine pairing not given here; UniProt P12969 38-74, looked up)
amylin deposits in the myocardium (AKO mice): not
Sarcolemmal Ca2+ leak and Ca2+ transients (AKO mice; rat amylin-infused mice): no significant changes

CC(=O)N1CCC(NC(=O)NC23CC4CC(CC(C4)C2)C3)CC1 [APAU]
amylin incorporation into RBCs and cardiac myocytes (HIP rats; pre-diabetic HIP rats): lower
heart function (HIP rats; pre-diabetic HIP rats, prior study): improved
levels of aggregated amylin in blood and cardiac myocytes (HIP rats; pre-diabetic male HIP rats, 10 weeks, prior study): lower levels

human amylin: 37-amino acid amyloid-forming peptide (islet amyloid polypeptide; IAPP), used recombinant/synthetic, aggregated (KCNTATCATQRLANFLVHSSNNFGAILSSTNVGSNTY)
structural change of RBCs (rounded shape) (WT rat RBCs; 50 μmol/L, 2 h): replicated
morphological change of RBCs (PCD) (WT rat RBCs; 4 hours, FIG. 27): replicated
amylin deposition on RBCs (diabetic UCD rats; 0.08 μg/g body weight i.v. daily, one week, FIG. 23D): amylin deposition on RBCs
plasma EPO level (diabetic UCD rats; 0.08 μg/g i.v. daily, one week, vs baseline, FIG. 23E): increase
Arginase 1 protein levels (diabetic UCD rats; [2]): elevated
arginase 2 protein expression (diabetic UCD rats; [2]): no significant change
renal HIF-2α and HIF-1α levels (diabetic UCD rats; whole kidney tissue homogenate, FIG. 23F): no difference
RBC adherence to cultured endothelial cells ([1]; WT rat RBCs incubated 50 μmol/L, 2 h, FIG. 5C): increased
Sarcolemmal Ca2+ leak and Ca2+ transients (AKO mice; females): no significant changes
amylin deposits in the myocardium (AKO mice): showed amylin deposits in the myocardium
Sarcolemmal Ca2+ leak and Ca2+ transients (AKO mice; myocytes from male AKO mice): increased

CCCCCC1OC1C/C=C\C/C=C\C/C=C\CCCC(=O)O (racemic) [14,15-EET, (±)14(15)-EET]
amylin incorporation in cardiac myocytes (cardiac myocytes): reduced
amylin aggregation (amylin): reduced
adhesion of HIP rat RBCs to cultured endothelial cells ([1]; ex vivo incubation, FIG. 22D): reduced
